# Assay results: patent US20220142913A1, “TRANSDERMAL DELIVERY FORMULATIONS” (Albert Einstein College of Medicine, priority 2020, published 2022)
# Test: Loading potential / solubility of low solubility agents in PEG400/myristic acid vehicles, nitrite saturated PEG400 and water
# Assay type: physicochemical
# Settings: for dissolution in Sample 3 solvent system: Sample 3: 30 ml PEG400 + 0.75 grams MA; for dissolved material in aqueous solution: aqueous sample
# Method: Vehicles for loading the active ingredient were prepared as illustrated in samples 1-4. Myristic acid (solid flakes) was dissolved in PEG400 upon warming the mixture in a warm water bath. Shaking accelerated the formation of the resulting clear solution. The following four concentrations of myristic acid (MA) in PEG400 were prepared and evaluated. Samples 1, 2, 3 and 4 were all clear solutions when the samples were allowed to attain ambient temperatures.
# The samples as vehicles were loaded with NO enhancing agent. […] Samples 1 and 2 were initially liquid but formed a solid uniform gel over a period of several hours. Sample 3 was prepared by dissolving 0.75 grams of MA in 30 ml's of PEG400 and heating in a water bath (˜60-80 C) for ˜15 minutes. Sample 4 was prepared by dissolving 2.25 grams of MA in 30 mls of PEG400 and heating in a water bath (˜60-80 C) for ˜15 minutes. Both sample 3 and sample 4 were uniform solutions when the heating cycle was finished. Upon cooling sample 3 remained liquid whereas sample 4 formed a uniform gel. […]
# The Sample 3 solvent system was also tested as a vehicle for loading potential with the following low solubility reagents using the above method: quercetin, berberine, N-acetyl cysteine amide (NACA) and N-acetyl cysteine ethyl ester (NAC-ethylester).
# The solutions of the two lipophilic NAC derivatives were prepared using sodium nitrite saturated PEG400, resulting in a clear solution. […] NAC is water soluble and the two derivatives are marginally soluble in water. The two solutions were then treated with several drops of acetic acid to trigger the formation of nitrous acid from the nitrite which can then nitrosate the reactive thiol on both of the NAC derivatives. The solutions turned pink indicative of S-nitrosothiol formation. The solutions remained pink for several days. The corresponding aqueous solutions lost color within hours. The use of nitrite saturated PEG400 allows for formulations that can be used to generate NO and S-nitrosothiols through mixing with reagents that acidify the mixture. A double frangible pouch incorporated into a patch may be used for a sustained NO delivery vehicle suitable for topical and transdermal applications.
molecule,measurement,setting,value
"COc1cc(/C=C/C(=O)CC(=O)/C=C/c2ccc(O)c(OC)c2)ccc1O [Curcumin 95, curcumin]",dissolving of the added curcumin,"1.5 grams Curcumin 95 in Samples 1, 2, 3 (30 ml PEG400 + myristic acid), warmed, cooled to ambient",almost all of the added curcumin
"CC(=O)N[C@@H](CS)C(=O)O [NAC, N-acetyl cysteine]",solubility in sodium nitrite saturated PEG400,,limited solubility
same,solubility in water,,water soluble
"CCOC(=O)[C@H](CS)NC(C)=O [NAC-ethylester, N-acetyl cysteine ethyl ester]",dissolution in Sample 3 solvent system,,substantial dissolution
COc1ccc2cc3[n+](cc2c1OC)CCc1cc2c(cc1-3)OCO2 [berberine],dissolution in Sample 3 solvent system,,substantial dissolution
same,dissolved material in aqueous solution,,minimal dissolved material
COc1cc(/C=C/C(=O)CC(=O)/C=C/c2ccc(O)c(OC)c2)ccc1O [curcumin],dissolution in water (colour of liquid phase),same amount of curcumin in same volume of water (3 g in 30 ml),almost no color in the liquid phase
O=c1c(O)c(-c2ccc(O)c(O)c2)oc2cc(O)cc(O)c12 [quercetin],solubility of quercetin,,200-300 mg in 30 ml
same,solubilization in Sample 3,,high degree of solubilization
same,dissolution in Sample 3 solvent system,,substantial dissolution
same,dissolved material in aqueous solution,,minimal dissolved material
N-acetyl cysteine amide [NACA],dissolution in Sample 3 solvent system,,substantial dissolution
